Consider 14 compounds from ChEMBL document CHEMBL1201862, “PubChem BioAssay data set” (2004).

Molecules are shown by their SMILES.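 Results reflect a 48-hour exposure of cells in 96-well plates to compound at five concentrations. The concentration for 50% growth inhibition is given as GI50.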 The source made the active and inactive calls. Cut-off read from the data, not from the text of the source: active = GI50 up to about 1.1 µM and inactive = higher.

Among the test systems are SF-539; LOX IMVI; UACC-62; OVCAR-8; NCI-H522; COLO 205; OVCAR-3; Malme-3M; SF-295; SNB-19; HOP-62; SK-MEL-5; HCC 2998; M14; A498; OVCAR-4; HOP-92.
Assay in all cases: inhibition of tumour cell growth, NCI panel, 48 h

Take `O=C(C#Cc1ccccc1)Nc1ccccc1CC(c1c[nH]c2ccccc12)c1c[nH]c2ccccc12`: the GI50 was 12.3 µM (inactive) with SF-539; 7.43 µM (inactive) with LOX IMVI; 7.5 µM (inactive) with UACC-62; 8.32 µM (inactive) with OVCAR-8; 11.6 µM (inactive) in the assay with NCI-H522; 18.2 µM (inactive) in the assay on COLO 205. For the same compound, the GI50 is 9.44 µM (inactive) in the assay with OVCAR-3; 25.6 µM (inactive) with Malme-3M; 9.46 µM (inactive) in the assay with SF-295; 26 µM (inactive) in the assay on SNB-19; 39.6 µM (inactive) with HOP-62; 17.9 µM (inactive) with SK-MEL-5. Also, the GI50 in the assay with HCC 2998 was 23.2 µM (inactive); with M14, 15.6 µM (inactive).

Consider `CCOc1ccc(O)cc1[P+](c1ccccc1)(c1ccccc1)c1ccccc1`, for which the GI50 in the assay on SF-539 is 3.83 µM (inactive); in the assay with A498 it was 11.7 µM (inactive); in the assay with LOX IMVI, 2.59 µM (inactive); in the assay on UACC-62, 3.79 µM (inactive); with OVCAR-4 it was 6.22 µM (inactive); in the assay on OVCAR-8 it was 3.42 µM (inactive). Moreover, the GI50 in the assay on NCI-H522 was 1.14 µM (inactive); in the assay with COLO 205, 2.86 µM (inactive); in the assay on OVCAR-3, 0.804 µM (active); with Malme-3M, 3.65 µM (inactive); in the assay with SF-295 it was 4.5 µM (inactive); in the assay with SNB-19, 3.33 µM (inactive). In addition, the GI50 was 8.41 µM (inactive) in the assay on HOP-62, 1.66 µM (inactive) with SK-MEL-5, 2.82 µM (inactive) in the assay with HCC 2998 and 4.45 µM (inactive) with M14.

`C/C(=N\N=C(\N)S)c1ccc(Oc2ccccc2)cc1`: the GI50 is 5.38 µM (inactive) in the assay on SF-539; 3.65 µM (inactive) with HOP-92; 13.7 µM (inactive) in the assay with A498; 13.5 µM (inactive) in the assay on LOX IMVI; 10.6 µM (inactive) with UACC-62; 3.7 µM (inactive) in the assay with OVCAR-4. Further, the GI50 in the assay with OVCAR-8 is 11.7 µM (inactive); with COLO 205 it was 8.36 µM (inactive); in the assay on OVCAR-3 it was 10.1 µM (inactive); in the assay on SF-295 it was 8.07 µM (inactive); in the assay with SNB-19, 16 µM (inactive); in the assay on HOP-62 it was 20.5 µM (inactive). Also, the GI50 in the assay on SK-MEL-5 was 5.12 µM (inactive); with HCC 2998, 7.93 µM (inactive); with M14 it was 9.98 µM (inactive).

`Cc1c(O)c(=O)ccn1CCN`: the GI50 with HOP-92, with A498, with LOX IMVI, in the assay on UACC-62, with OVCAR-4 and in the assay on OVCAR-8 was > 100 µM (inactive) throughout. Moreover, the GI50 in the assay on NCI-H522, with COLO 205, with Malme-3M, in the assay on SNB-19, in the assay with HCC 2998 and with M14 was > 100 µM (inactive) each time.

As to `CCOC(=O)c1c[nH]c2c(ccc3ncccc32)c1=O`, the GI50 with SF-539, in the assay on A498, in the assay on LOX IMVI, in the assay on UACC-62, in the assay on OVCAR-4 and in the assay with OVCAR-8 was > 100 µM (inactive) throughout. For the same compound, the GI50 in the assay with NCI-H522, in the assay with COLO 205, with OVCAR-3, with Malme-3M, in the assay with SNB-19 and in the assay on HOP-62 was > 100 µM (inactive) each time. In addition, the GI50 in the assay with SK-MEL-5, in the assay on HCC 2998 and with M14 was > 100 µM (inactive) in each case.

With `COc1cc(C2c3cc4c(cc3[C@@H](NCCN3CCCCC3)C3COC(=O)[C@H]23)OCO4)cc(OC)c1O` (stereo not given in full), the GI50 in the assay on SF-539 is 0.134 µM (active); with HOP-92 it was 0.142 µM (active); in the assay with A498, 0.165 µM (active); in the assay with LOX IMVI it was 0.237 µM (active); in the assay with UACC-62, 0.272 µM (active); with OVCAR-4 it was 0.253 µM (active). Further, the GI50 is 0.718 µM (active) in the assay on OVCAR-8; 1.01 µM (active) in the assay with COLO 205; 0.78 µM (active) with OVCAR-3; 0.29 µM (active) in the assay with Malme-3M; 0.107 µM (active) in the assay on SF-295; 0.354 µM (active) in the assay on SNB-19. In addition, the values for the GI50 in the assay on HOP-62, with SK-MEL-5 and in the assay on M14 were 0.064 µM (active), 0.394 µM (active) and 0.273 µM (active), respectively.

As to `CCCOC(=O)C1CCC(=O)N1C(=O)C(C)Cl` (stereo not given), the GI50 with HOP-92, with A498, in the assay with LOX IMVI, in the assay on UACC-62, in the assay on OVCAR-4 and in the assay with OVCAR-8 was > 100 µM (inactive) in each case. Besides, the GI50 in the assay on NCI-H522, with COLO 205, in the assay with OVCAR-3, in the assay with Malme-3M, with SF-295 and in the assay with SNB-19 was > 100 µM (inactive) throughout. The GI50 in the assay with HOP-62, in the assay with SK-MEL-5, in the assay on HCC 2998 and in the assay on M14 was > 100 µM (inactive) in each case.

In the case of `Cc1ccc(O)c(/N=N/c2ccc(S(=O)(=O)O)cc2)n1`, the GI50 in the assay with SF-539, with HOP-92, in the assay on A498, in the assay with LOX IMVI, in the assay with UACC-62 and in the assay with OVCAR-8 was > 100 µM (inactive) in each case. In addition, the GI50 in the assay on NCI-H522, in the assay on COLO 205, in the assay on SF-295, with SK-MEL-5 and with M14 was > 100 µM (inactive) each time.

As for `CCN(CC)c1ccc(C2N3CCCCC3[C@@H]3c4[nH]c5ccccc5c4CCN23)cc1` (stereo not given in full), the GI50 in the assay on SF-539 is 18.3 µM (inactive); in the assay with HOP-92, 38.1 µM (inactive); with A498, 14.5 µM (inactive); in the assay on UACC-62, 19.5 µM (inactive); in the assay on OVCAR-4, 36.5 µM (inactive); in the assay on OVCAR-8 it was 35.3 µM (inactive). Besides, the GI50 is 27.4 µM (inactive) with COLO 205; 23.9 µM (inactive) in the assay with OVCAR-3; 24.2 µM (inactive) with Malme-3M; 53.7 µM (inactive) in the assay with SF-295; 32.5 µM (inactive) with SNB-19; > 100 µM (inactive) in the assay with HOP-62. The GI50 was 17.3 µM (inactive) in the assay on SK-MEL-5 and 24.8 µM (inactive) in the assay on M14.

Regarding `Cc1ccc2nc(NC(=O)C(=O)CC(=O)c3cccc4ccccc34)sc2c1`, the GI50 was 24.7 µM (inactive) in the assay on SF-539; 14.8 µM (inactive) in the assay on HOP-92; 63.5 µM (inactive) in the assay with A498; 32.2 µM (inactive) in the assay on LOX IMVI; 25.6 µM (inactive) in the assay on UACC-62; 16.2 µM (inactive) in the assay on OVCAR-4. Moreover, the GI50 with OVCAR-8 is 23.4 µM (inactive); in the assay with COLO 205 it was 60.4 µM (inactive); with OVCAR-3, 19.9 µM (inactive); with Malme-3M it was 27 µM (inactive); in the assay on SF-295, 19.9 µM (inactive); in the assay with SNB-19, 39.7 µM (inactive). Also, the GI50 is 22.2 µM (inactive) in the assay with HOP-62, 23.1 µM (inactive) in the assay with SK-MEL-5, 39.2 µM (inactive) in the assay with HCC 2998 and 19.6 µM (inactive) with M14.

As to `COc1ccc(OC)c(NC(=O)C2=C(C)NC(C)=C(C(=O)Nc3cc(OC)ccc3OC)C2c2ccco2)c1`, the GI50 in the assay with SF-539, in the assay on HOP-92, with A498, with UACC-62, in the assay on OVCAR-8 and with NCI-H522 was > 100 µM (inactive) in each case. Moreover, the GI50 with COLO 205 was > 100 µM (inactive); in the assay on OVCAR-3 it was > 100 µM (inactive); in the assay on Malme-3M, > 100 µM (inactive); in the assay on SNB-19 it was > 100 µM (inactive); with HOP-62 it was > 100 µM (inactive); in the assay on SK-MEL-5, 51.3 µM (inactive). Further, in the assay on M14, the GI50 is > 100 µM (inactive).

In the case of `COC(=O)C(=O)C(C#N)c1cccc(Cl)c1` (stereo not given), the GI50 in the assay on SF-539, with A498, in the assay with LOX IMVI, in the assay with UACC-62, in the assay on OVCAR-4 and in the assay on OVCAR-8 was > 100 µM (inactive) each time. Also, the GI50 in the assay with NCI-H522, in the assay on COLO 205, with OVCAR-3, in the assay on Malme-3M, in the assay with SF-295 and in the assay on SNB-19 was > 100 µM (inactive) each time. Also, the GI50 in the assay with HOP-62, with SK-MEL-5, in the assay on HCC 2998 and in the assay on M14 was > 100 µM (inactive) in each case.

For `Cc1c(O)c(=O)ccn1CCO`, the GI50 in the assay with HOP-92, in the assay on A498, with LOX IMVI, in the assay on UACC-62, in the assay on OVCAR-4 and with OVCAR-8 was > 100 µM (inactive) throughout. For the same compound, the GI50 with NCI-H522, in the assay on COLO 205, with OVCAR-3, in the assay with Malme-3M, with SF-295 and with SNB-19 was > 100 µM (inactive) each time. Moreover, the GI50 with HOP-62, in the assay with SK-MEL-5 and with M14 was > 100 µM (inactive) in each case.

Consider `O=C1CCC(=O)C12CCc1cccc(O)c12`, for which the GI50 with HOP-92, in the assay on LOX IMVI, with UACC-62, in the assay on OVCAR-4, in the assay with OVCAR-8 and in the assay with COLO 205 was > 100 µM (inactive) each time. Further, the GI50 with OVCAR-3, in the assay with Malme-3M, in the assay on SF-295, in the assay with HOP-62, in the assay on HCC 2998 and with M14 was > 100 µM (inactive) in each case.
